According to paper PMC6615597, “Spermine in semen of male sea lamprey acts as a sex pheromone” (PLoS Biology, 2019):
Like-named read-outs stand apart in the source and are kept apart here.

Columns and labels:
[1] = test system: T1, TAAR348 (trace amine-associated receptor (TAAR)-like receptor 348); experiment: TR-FRET cAMP assay in TAAR348-expressing HEK293T cells; inhibition of […] spermine response; type: cell-based, Petromyzon marinus
T1 construct: full-length ORF (348 residues) with N-terminal Rho-tag, expressed in HEK293T

[2] = test system: T1, TAAR348 (trace amine-associated receptor (TAAR)-like receptor 348); experiment: TR-FRET cAMP assay in TAAR348-expressing HEK293T cells (agonist); type: cell-based, Petromyzon marinus
[3] = test system: TAAR348 (trace amine-associated receptor (TAAR)-like receptor 348)

In the case of C1CNCCNCCNCCN1 [SP20, 1,4,7,10-tetraazacyclododecane], the IC50 [1] is reported as 0.6 ± 0.1 µM.
With NCCCNCCCCNCCCNC(=O)Cc1cccc2ccccc12 [SP21, 1-naphthylacetyl spermine] the EC50 [2] was 5 ± 1 µM.
Compound NCCCNCCCCNCCCN [spermine] has an EC50 [3] of 34 ± 1 µM.
